# Laboratory results reported in ChEMBL document CHEMBL1201862, “PubChem BioAssay data set” (2004).
# Activity calls are given as the source filed them.
# Key:
# [1] = biological target: Epstein-Barr nuclear antigen 1 (Epstein-Barr virus (strain B95-8) (HHV-4) (Human herpesvirus 4), UniProt P03211); test: EBNA-1 inhibitors, dose response, biochemical, fluorescence polarization, 1536-well (AID 2381); set-up: species or system human gammaherpesvirus 4;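 note: fluorescence polarization of a Cy5 DNA probe bound by EBNA-1 protein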
# Sequence of Epstein-Barr nuclear antigen 1 (P03211 whole entry): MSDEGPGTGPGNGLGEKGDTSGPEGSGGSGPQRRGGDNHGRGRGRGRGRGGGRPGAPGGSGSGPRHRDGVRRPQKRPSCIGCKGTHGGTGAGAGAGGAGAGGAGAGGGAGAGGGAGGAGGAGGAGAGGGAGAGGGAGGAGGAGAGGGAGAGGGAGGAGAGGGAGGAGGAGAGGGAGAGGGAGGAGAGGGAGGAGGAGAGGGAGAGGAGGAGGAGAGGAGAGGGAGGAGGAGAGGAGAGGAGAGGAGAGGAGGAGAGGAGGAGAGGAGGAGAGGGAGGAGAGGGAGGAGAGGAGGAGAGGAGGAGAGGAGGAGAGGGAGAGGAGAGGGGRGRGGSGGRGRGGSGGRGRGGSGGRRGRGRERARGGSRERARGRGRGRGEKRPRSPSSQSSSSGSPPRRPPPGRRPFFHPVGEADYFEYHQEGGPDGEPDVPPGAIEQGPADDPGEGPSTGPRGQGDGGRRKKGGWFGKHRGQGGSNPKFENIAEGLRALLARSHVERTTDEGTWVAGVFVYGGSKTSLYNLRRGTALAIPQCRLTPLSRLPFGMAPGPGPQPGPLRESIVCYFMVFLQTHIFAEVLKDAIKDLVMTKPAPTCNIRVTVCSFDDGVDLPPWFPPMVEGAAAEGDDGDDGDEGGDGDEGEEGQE
# [2] = biological target: Lytic switch protein BZLF1 (Epstein-Barr virus (strain B95-8) (HHV-4) (Human herpesvirus 4), UniProt P03206); test: EBV ZTA inhibitors, dose response, counter-screen for EBNA-1 inhibitor project, biochemical, fluorescence polarization, Epstein-Barr virus, 1536-well (AID 2377); set-up: species or system human gammaherpesvirus 4;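 note: fluorescence polarization of Cy5-labelled ZRE DNA probe bound by purified Zta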
# Sequence of Lytic switch protein BZLF1 (P03206 whole entry): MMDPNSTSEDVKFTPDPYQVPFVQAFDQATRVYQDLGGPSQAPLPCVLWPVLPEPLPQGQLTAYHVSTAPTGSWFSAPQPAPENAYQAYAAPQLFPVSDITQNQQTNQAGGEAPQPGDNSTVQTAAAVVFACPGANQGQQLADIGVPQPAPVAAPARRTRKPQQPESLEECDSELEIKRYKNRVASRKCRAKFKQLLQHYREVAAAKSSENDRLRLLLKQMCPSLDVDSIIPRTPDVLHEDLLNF
# [3] = biological target: Neuropeptide Y receptor type 1 (Homo sapiens, UniProt P25929); type: functional;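 note: HEK293 cells with a CNG channel challenged with NPY then isoproterenol; potency as antagonist that reverses NPY suppression of cAMP signal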
# Sequence of Neuropeptide Y receptor type 1 (P25929 whole entry): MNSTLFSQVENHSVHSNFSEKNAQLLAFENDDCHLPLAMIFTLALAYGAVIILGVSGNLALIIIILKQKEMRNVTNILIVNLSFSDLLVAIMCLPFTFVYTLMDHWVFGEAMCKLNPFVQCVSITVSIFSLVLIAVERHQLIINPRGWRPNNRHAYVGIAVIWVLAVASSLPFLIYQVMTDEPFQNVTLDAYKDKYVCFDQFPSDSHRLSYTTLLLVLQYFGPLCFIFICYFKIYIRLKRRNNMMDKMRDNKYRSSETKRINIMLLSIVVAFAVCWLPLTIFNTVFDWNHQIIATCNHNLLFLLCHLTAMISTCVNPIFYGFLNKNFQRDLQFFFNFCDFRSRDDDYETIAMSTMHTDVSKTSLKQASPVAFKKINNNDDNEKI
# [4] = biological target: Neuropeptide Y receptor type 2 (Homo sapiens, UniProt P49146); type: functional, cell-based;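 note: HEK293 cells expressing the receptor and a CNG channel; stimulus was NPY near EC95 followed by isoproterenol to raise cAMP; antagonist potency measured as restoring cAMP signal that NPY suppresses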
# Sequence of Neuropeptide Y receptor type 2 (P49146 whole entry): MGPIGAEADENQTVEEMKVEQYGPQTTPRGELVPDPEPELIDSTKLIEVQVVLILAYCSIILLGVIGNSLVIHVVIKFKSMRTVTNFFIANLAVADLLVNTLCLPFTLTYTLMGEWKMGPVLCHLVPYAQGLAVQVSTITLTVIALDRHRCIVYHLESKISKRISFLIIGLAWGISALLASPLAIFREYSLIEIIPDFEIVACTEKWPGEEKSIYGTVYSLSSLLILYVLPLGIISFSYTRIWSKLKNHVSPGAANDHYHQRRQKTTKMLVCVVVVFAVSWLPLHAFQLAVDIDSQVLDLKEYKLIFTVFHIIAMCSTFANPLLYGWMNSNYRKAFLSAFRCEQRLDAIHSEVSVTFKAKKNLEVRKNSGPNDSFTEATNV
# Protein Rev = Protein Rev (Human immunodeficiency virus type 1 group M subtype B (isolate WMJ22)(HIV-1), UniProt P05866); test: HIV-1 Rev-RRE RNA binding disruptors, dose response, biochemical, protein-RNA interaction (AID 842); set-up: species or system Human immunodeficiency virus 1
# Sequence of Protein Rev (P05866 whole entry): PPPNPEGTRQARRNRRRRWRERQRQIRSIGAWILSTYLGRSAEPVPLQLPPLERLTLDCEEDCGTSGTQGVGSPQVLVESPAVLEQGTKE
# Nonstructural protein 1 = Nonstructural protein 1 (Influenza A virus, UniProt Q194T2); type: functional, Influenza A virus (A/California/07/2009(H1N1))
# Sequence of Nonstructural protein 1 (Q194T2 whole entry): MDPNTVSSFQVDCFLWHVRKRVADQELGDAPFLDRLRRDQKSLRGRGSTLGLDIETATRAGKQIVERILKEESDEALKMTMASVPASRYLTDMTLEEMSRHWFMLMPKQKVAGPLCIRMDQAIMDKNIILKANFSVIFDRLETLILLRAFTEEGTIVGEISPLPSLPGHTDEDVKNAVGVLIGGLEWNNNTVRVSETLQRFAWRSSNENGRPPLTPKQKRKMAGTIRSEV
# [5] = biological target: Matrix metalloproteinase-14 (Homo sapiens, UniProt P50281); test: Dose Response confirmation of uHTS hits for a small molecule inhibitors of MT1-MMP activation in a fluorescence assay set 1.; type: functional
# [6] = biological target: Serine/threonine-protein phosphatase PP1-alpha catalytic subunit (Homo sapiens, UniProt P62136); test: PP1 phosphatase inhibitors, dose response, biochemical, fluorescence (AID 2403);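 note: phosphatase turnover of OMFP into fluorescent 3-O-methylfluorescein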
# Sequence of Serine/threonine-protein phosphatase PP1-alpha catalytic subunit (P62136 whole entry): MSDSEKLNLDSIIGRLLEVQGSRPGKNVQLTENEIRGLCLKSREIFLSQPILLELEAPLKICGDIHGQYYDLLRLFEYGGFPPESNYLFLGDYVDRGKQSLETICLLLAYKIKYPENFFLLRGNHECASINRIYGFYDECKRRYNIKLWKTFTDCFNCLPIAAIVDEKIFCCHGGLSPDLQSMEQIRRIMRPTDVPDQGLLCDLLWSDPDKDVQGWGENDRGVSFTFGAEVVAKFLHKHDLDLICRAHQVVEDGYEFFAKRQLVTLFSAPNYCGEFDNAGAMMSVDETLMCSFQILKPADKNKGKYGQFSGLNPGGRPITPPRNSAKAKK
# [7] = biological target: T1, Serine/threonine-protein phosphatase (Homo sapiens, UniProt Q9BPW0); test: Counterscreen for inhibitors of PP1: fluorescence-based biochemical high throughput dose response assay to identify inhibitors of Protein Phosphatase 5 (PP5). [Related pubchem assays: 2034 (Summary (PP5 inhibitors)), 1987 (PP5 inhibitors in singlate), 2235 (PP1 inhibitors in singlate)]
# T1 sequence (Q9BPW0 whole entry): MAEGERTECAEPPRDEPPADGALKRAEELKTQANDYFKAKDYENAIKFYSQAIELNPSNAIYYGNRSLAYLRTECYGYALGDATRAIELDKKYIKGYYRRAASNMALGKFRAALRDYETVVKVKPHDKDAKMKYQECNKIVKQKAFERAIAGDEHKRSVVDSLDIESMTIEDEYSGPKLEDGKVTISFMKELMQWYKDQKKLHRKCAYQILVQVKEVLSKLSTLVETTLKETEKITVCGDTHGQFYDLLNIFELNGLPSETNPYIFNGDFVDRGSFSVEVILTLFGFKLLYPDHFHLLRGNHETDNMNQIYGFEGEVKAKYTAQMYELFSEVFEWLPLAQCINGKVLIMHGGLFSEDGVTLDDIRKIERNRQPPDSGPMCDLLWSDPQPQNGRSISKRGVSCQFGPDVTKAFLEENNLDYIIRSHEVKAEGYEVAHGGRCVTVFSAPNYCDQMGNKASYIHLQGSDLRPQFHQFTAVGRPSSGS
# [8] = AlphaScreen signal interference compounds, dose response, artefact control for ARNT-TACC3 interaction inhibitor project, biochemical, luminescence, cherry-pick (AID 651705); type: functional;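 note: AlphaScreen bead proximity signal that flags compounds interfering with the detection technology; potency reflects signal decrease which marks the compound as an assay artifact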
# [9] = biological target: Neuropeptides B/W receptor type 1 (Homo sapiens, UniProt P48145); test: Fluorescence-based dose response cell-based high throughput screening assay to identify antagonists of the G-protein coupled receptor 7 (GPR7). [Related pubchem assays: 1952 (Screening assay (GPR7 antagonists).), 1880 (Summary AID.)]; type: functional
# Sequence of Neuropeptides B/W receptor type 1 (P48145 whole entry): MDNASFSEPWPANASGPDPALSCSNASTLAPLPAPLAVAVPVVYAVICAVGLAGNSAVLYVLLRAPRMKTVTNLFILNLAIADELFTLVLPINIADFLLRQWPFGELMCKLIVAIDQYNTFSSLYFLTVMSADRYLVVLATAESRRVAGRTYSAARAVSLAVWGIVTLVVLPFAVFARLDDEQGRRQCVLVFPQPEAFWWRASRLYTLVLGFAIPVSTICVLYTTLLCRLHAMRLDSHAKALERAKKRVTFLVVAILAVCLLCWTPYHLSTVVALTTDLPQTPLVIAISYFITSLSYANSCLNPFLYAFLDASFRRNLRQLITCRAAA
# [10] = biological target: Melanin-concentrating hormone receptor 1 (Homo sapiens, UniProt Q99705); test: Fluorescence-based counterscreen for antagonists of the G-protein coupled receptor 7 (GPR7): cell-based high throughput dose response assay to identify antagonists of the melanin-concentrating hormone receptor 1 (MCHR1).; type: functional
# Sequence of Melanin-concentrating hormone receptor 1 (Q99705 whole entry): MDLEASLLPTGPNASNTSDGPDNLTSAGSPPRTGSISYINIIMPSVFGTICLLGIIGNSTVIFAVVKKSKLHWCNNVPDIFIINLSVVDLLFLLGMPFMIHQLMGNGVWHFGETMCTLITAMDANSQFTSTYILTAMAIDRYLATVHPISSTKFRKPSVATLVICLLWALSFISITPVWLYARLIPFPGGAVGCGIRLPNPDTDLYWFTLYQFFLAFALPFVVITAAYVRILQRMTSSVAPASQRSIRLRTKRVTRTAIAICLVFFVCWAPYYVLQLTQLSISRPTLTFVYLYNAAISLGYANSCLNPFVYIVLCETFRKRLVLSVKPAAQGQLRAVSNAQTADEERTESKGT
# [11] = biological target: Sphingosine 1-phosphate receptor 2 (Homo sapiens, UniProt O95136); test: Dose Response Cell Based Assay for Agonists of the S1P2 Receptor of Purchased Analogues. [Related pubchem assays: 729, 843, 854, 736 ]; type: functional
# Sequence of Sphingosine 1-phosphate receptor 2 (O95136 whole entry): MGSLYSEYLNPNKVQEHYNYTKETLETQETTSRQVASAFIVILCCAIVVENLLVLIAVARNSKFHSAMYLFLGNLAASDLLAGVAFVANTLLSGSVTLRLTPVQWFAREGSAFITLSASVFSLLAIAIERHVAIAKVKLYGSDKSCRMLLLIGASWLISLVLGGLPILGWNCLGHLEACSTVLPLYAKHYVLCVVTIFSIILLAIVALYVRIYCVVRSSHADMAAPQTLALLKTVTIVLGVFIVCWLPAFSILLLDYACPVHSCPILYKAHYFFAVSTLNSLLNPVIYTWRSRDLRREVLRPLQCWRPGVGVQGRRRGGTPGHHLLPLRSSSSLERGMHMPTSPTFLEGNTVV
compound,measurement,setting,value
Nc1c(C(=O)Nc2ccc3c(c2)OCCO3)nnn1Cc1cccc(F)c1,IC50,[1],13.7 µM (not active)
same,IC50,[2],> 111 µM (not active)
CCc1cccc(CC)c1NC(=O)COC(=O)c1ccccc1-c1nc2ccccc2s1,IC50,[3],5.77 µM (active)
same,IC50,[4],17.3 µM (not active)
CC1=NN(c2ccccc2)C(=O)C1N=Nc1ccc(N)cc1 (stereo not drawn),IC50,Protein Rev,> 79.4 µM (not active)
same,IC50,Nonstructural protein 1,10.5 µM (active)
same,IC50,[5],> 80 µM (inactive)
COc1cc(NS(=O)(=O)c2ccc(Nc3nc(-c4ccccn4)cs3)cc2)nc(OC)n1,IC50,[6],3.63 µM (active)
same,IC50,[7],> 67 µM (not active)
same,AC50,[8],88.3 µM (active)
O=C(Oc1ccc(C(=S)N2CCOCC2)cc1)c1ccccc1,IC50,[9],> 43.8 µM (not active)
same,IC50,[10],> 14.6 µM (not active)
Cc1cc(C(=O)CN2C(=O)NC3(CCc4ccccc43)C2=O)c(C)n1Cc1ccccc1 (stereo not drawn),EC50,[11],> 30 µM (not active)
